Measurements from EP2886531B1, “Aspartic acid derivatives” (Merck Patent GmbH, priority 2013, dated 2015).

What was measured:
[1] = Prolonged treatment of VKDGYI peptide resin with 1 M Oxyma Pure and 20 % piperidine (aspartimide formation); format: physicochemical; conditions: VKDGYI; for Asu per 10' cycle / Asu [%] / piperidides [%]: Oxyma Pure +; for Asu [%] / piperidides [%] / target [%]: 18 hours; for target [%]: Oxyma Pure +: 1 M Oxyma Pure and 20 % piperidine in dimethylformamide
Protocol: [drawing 14] 50 mg samples of the corresponding aspartic acid derivatives of example 4 are treated over 18 hours with a solution of 1 M Oxyma Pure and 20 % piperidine in dimethylformamide. The peptides are cleaved off the resin with 95 % TFA and analysed with HPLC as well as MS to identify all aspartimide related products (conditions see example 4). The results are summarized in table 6: Table 6: Results after 110 Fmoc removal cycles using an acidic modifier in the piperidine mediated Fmoc removal cocktails, target peptide = VKDG YI, the aspartimide derived by-products are the aspartimide itself and the sum of piperidides

[2] = Prolonged piperidine treatment of VKDRYI peptide resin (aspartimide formation, Asp-Arg motif); format: physicochemical; conditions: for D/L-Asu [%] / piperidides [%] / target [%]: 110 Fmoc removal cycles; for target [%]: target peptide VKDRYI
Protocol: (§1) Automated peptide synthesis, piperidine treatments of the resin samples and final TFA cleavages are performed as described in the protocols of example 4. In addition, to evaluate the advantage of the protecting groups used in this invention in heat accelerated SPPS we treat 50 mg peptide resin samples with a solution of 20% piperidine in DMF at 60°C over 200 minutes. Microwave assisted peptide synthesis conditions are often used to shorten peptide synthesis times and increase coupling reaction and Fmoc deprotection.
(§2) In table 4 the amounts of by-products formed after the prolonged exposure of the peptide resins to piperidine (110 Fmoc removal cycles) are summarized for all side-chain protections used in this invention. Table 4: Results after 110 Fmoc removal cycles using piperidine, target peptide sequence = VKDRYI, the aspartimide (Asu) derived by-products are the aspartimide itself and the sum of piperidides

[3] = Prolonged piperidine treatment of VKDNYI peptide resin (aspartimide formation, Asp-Asn motif); format: physicochemical; conditions: for D/L-Asu [%] / piperidides [%] / target [%]: 110 Fmoc removal cycles; for target [%]: target peptide VKDNYI
Protocol: (§3) Automated peptide synthesis, piperidine treatments of the resin samples and final TFA cleavages are performed as described in the protocols of example 4. In addition, 50 mg peptide resin samples are treated with a solution of DBU/piperidine/DMF (1:19:79) over 225 minutes to investigate the aspartimide formation at harsher Fmoc deprotection conditions often used for complete Fmoc removals in aggregation prone sequences.
(§4) The resulting peptide samples are analysied and all relevant impurities identified by UPLC-MS analysis (Xevo Waters Q-TOF-1, lock mass = 556.277 (leu-enkephaline), LC-conditions: CHS 18 1,7 µm (100x2.1 mm) at 40°C; water acetonitrile gradient of 5% to 35 % B over 10 min where buffer A is 0.1 % formic acid in water and buffer B is 0.1 % formic acid in acetonitrile, flow 0.6 ml/min).
as §2, with “table 2” for “table 4”, “invention. […]” for “invention.”, “Table 2:” for “Table 4:”, “peptide” for “peptide sequence”, “= VKDNYI,” for “= VKDRYI,”, “derived by products” for “derived by-products”

[4] = Prolonged piperidine treatment at 60°C of VKDRYI peptide resin (aspartimide formation); format: physicochemical; conditions: for D/L-Asu [%] / piperidides [%]: 20% piperidine in DMF at 60°C, 200 minutes; for target [%]: target peptide VKDRYI, 20% piperidine in DMF at 60°C over 200 minutes, 100 Fmoc removal cycles; for aspartimide by-products per cycle: piperidine at 60 degrees Celsius
Protocol: as §1
The application of microwave heating to SPPS is accelerating coupling and deprotection reactions leading to shorter cycle times, higher repetitive yields, and ultimately purer peptides. On the other hand, microwave energy can also lead to increased levels of aspartimide by-products. To overcome that drawback we evaluated the advantage of the side-chain protections used in this invention by exposing the peptide resins to Fmoc removal cycles at 60 degrees Celsius.
as §2, with “5” for “4”, “at 60 degree Celsius (100” for “(110”, “invention. […]” for “invention.”, “5:” for “4:”, “100” for “110”, “piperidine at 60°C,” for “piperidine,”

[5] = Prolonged DBU treatment of VKDNYI peptide resin (aspartimide formation); format: physicochemical; conditions: for D/L-Asu [%] / piperides [%]: DBU/piperidine/DMF (1:19:79), 225 minutes; for target [%]: target peptide VKDNYI, DBU/piperidine/DMF (1:19:79) over 225 minutes, 110 Fmoc removal cycles
Protocol: as §3, §4
In table 3 the amounts of by-products formed after prolonged DBU treatments are summarized for all side-chain protections used in this invention. […] Since the DBU mediated Fmoc removals are much quicker than the piperidine mediated, this experiment again represents a Fmoc SPPS assembly of an 100mer after introducing the aspartic acid residue using exclusively DBU for Fmoc cleavage. Table 3: Results after 110 Fmoc removal cycles using DBU, target peptide = VKDNYI, the aspartimide (Asu) derived by-products are the aspartimide itself and the sum of piperidides

[6] = Prolonged piperidine treatment of VKDGYI peptide resin (aspartimide formation, Asp-Gly motif)
[7] = VKDGYI, 20 % piperidine in dimethylformamide
[8] = VKDGYI, 20 % piperidine in dimethylformamide, 18 hours, aspartimide
[9] = VKDGYI, 20 % piperidine in dimethylformamide, 18 hours, sum of piperidides
[10] = VKDGYI, Oxyma Pure -: 20 % piperidine only, 18 hours (as Table 1)
[11] = target peptide VKDGYI, 20 % piperidine in dimethylformamide over 18 hours, 110 Fmoc removal cycles

Row | SMILES | Asu per 10' cycle [1] | Asu [%] [1] [%] | piperidides [%] [1] [%] | Asu per 10' cycle ([2]; VKDRYI) | Half-life in cycles ([2]; VKDRYI) [cycles] | D/L-Asu [%] ([2]; VKDRYI) | piperidides [%] ([2]; VKDRYI) | target [%] [2] [%] | Asu per 10' cycle ([3]; VKDNYI, piperidine) | D/L-Asu [%] ([3]; VKDNYI, piperidine) | piperidides [%] ([3]; VKDNYI, piperidine) | target [%] ([3]; piperidine) | D/L-Asu [%] ([4]; VKDRYI) | piperidides [%] ([4]; VKDRYI) | Asu per 10' cycle ([4]; VKDRYI, piperidine at 60°C) | target [%] [4] [%] | Asu per 2' cycle ([5]; VKDNYI, DBU) | D/L-Asu [%] ([5]; VKDNYI) | piperides [%] ([5]; VKDNYI) | target [%] [5] [%] | other results
1 | CC(C)(C)OC(=O)C[C@H](NC(=O)OCC1c2ccccc2-c2ccccc21)C(=O)O [tBu, Fmoc-Asp(OtBu)-OH, reference compound] | 0.45 | 8.8 | 30.1 | 1.3 | 55 | 16.9 | 58.4 | 24.7 | 1.6 | 4.9 | 79.0 | 16.1 | 28.7 | 41.0 | 1.2 | 30.3 | 5.2 | 2.6 | 97.1 | 0.3 | target [%] [1]: 61.1%; Half-life in cycles ([3]; VKDNYI, piperidine): 40 cycles; Half-life in cycles ([4]; VKDRYI, piperidine at 60°C): 58 cycles; Half-life in cycles ([5]; VKDNYI, DBU, 2' cycles): 13 cycles; Asu per 10' cycle [%] [6, 7]: 2.3%; Half-life in 10' cycles [6, 7]: 30 10' cycles; Asu [%] [6, 8]: 6.4%; piperidides [%] [6, 9]: 85.6%; Asu [%] ([6]; VKDGYI, Oxyma Pure -): 6.4%; Asu per 10' cycle ([6]; VKDGYI, Oxyma Pure -): 2.3; piperidides [%] ([6]; VKDGYI, Oxyma Pure -): 85.6%; target [%] [6, 10]: 8.0%; target [%] [6, 11]: 8.0%
2 | CCC(C)(CC)OC(=O)C[C@H](NC(=O)OCC1c2ccccc2-c2ccccc21)C(=O)O [Mpe, Fmoc-Asp(OMpe)-OH, reference compound] | 0.16 | 3.8 | 12.0 | 0.4 | 173 | 6.9 | 28.9 | 64.2 | 0.5 | 4.3 | 37.5 | 58.2 | 16.9 | 19.6 | 0.5 | 63.5 | 1.5 | 7.5 | 73.7 | 18.8 | target [%] [1]: 84.2%; times more aspartimide per Fmoc removal cycle ([2]; VKDRYI, in comparison to Bno): approximately seven; Half-life in cycles ([2]; VKDRYI, listed as Fmoc-Asp(OMpe)-OH): approx. 170 cycles; Half-life in cycles ([3]; VKDNYI, piperidine): 140 cycles; times more aspartimide per Fmoc removal cycle ([3]; VKDNYI, piperidine, in comparison to Bno): ten; aspartimide by-products per cycle ([4]; VKDRYI): 0.5%; Half-life in cycles ([4]; VKDRYI, piperidine at 60°C): 153 cycles; Half-life in cycles ([5]; VKDNYI, DBU, 2' cycles): 46 cycles; Asu per 10' cycle [%] [6, 7]: 0.8%; Half-life in 10' cycles [6, 7]: 90 10' cycles; Asu [%] [6, 8]: 6.7%; piperidides [%] [6, 9]: 51.0%; Asu [%] ([6]; VKDGYI, Oxyma Pure -): 6.7%; Asu per 10' cycle ([6]; VKDGYI, Oxyma Pure -): 0.8; piperidides [%] ([6]; VKDGYI, Oxyma Pure -): 51.0%; target [%] [6, 10]: 42.3%; target [%] [6, 11]: 42.3%
3 | CCCCC(CCCC)(CCCC)OC(=O)C[C@H](NC(=O)OCC1c2ccccc2-c2ccccc21)C(=O)O [Bno] | – | – | – | 0.06 | 1202 | 2.6 | 3.6 | 93.8 | 0.04 | 0.9 | 3.6 | 95.5 | 4.9 | 4.3 | 0.1 | 90.8 | 0.3 | 3.5 | 22.0 | 74.5 | aspartimide side reaction during the Fmoc removals per cycle ([2]; VKDRYI): less than 0.06%; aspartimide side reaction during the Fmoc removals, rate per cycle ([3]; VKDNYI, piperidine): 0.05%; Half-life in cycles [4]: 718 cycles; aspartimide formation per 2 minute Fmoc removal cycle ([5]; VKDNYI, DBU): less than 0.3%
4 | CCC(CC)(CC)OC(=O)C[C@H](NC(=O)OCC1c2ccccc2-c2ccccc21)C(=O)O [Epe, (2S)-N-((9H-fluoren-9-ylmethyloxy)carbonyl)aspartic acid-4-((3-ethyl)pent-3-yl) ester] | 0.14 | 2.6 | 11.7 | 0.1 | 539 | 3.90 | 9.4 | 86.7 | 0.2 | 3.0 | 16.0 | 81.0 | 7.8 | 6.8 | 0.2 | 85.4 | 0.5 | 5.6 | 37.3 | 57.1 | target [%] [1]: 85.7%; Half-life in cycles [3]: 365 cycles; Half-life in cycles [4]: 439 cycles; aspartimide by-products per cycle ([4]; VKDRYI): 0.2%; Half-life in cycles [5]: 138 cycles; Asu per 10' cycle [%] [6, 7]: 0.4%; Asu [%] [6, 8]: 4.1%; piperidides [%] [6, 9]: 31.5%; Asu [%] ([6]; VKDGYI, Oxyma Pure -): 4.1%; Asu per 10' cycle ([6]; VKDGYI, Oxyma Pure -): 0.4; piperidides [%] ([6]; VKDGYI, Oxyma Pure -): 31.5%; target [%] [6, 10]: 64.4%; minimizes the aspartimide formation by a factor compared to Mpe ([6]; VKDGYI, relative to Mpe protection): two; target [%] [6, 11]: 64.4%
